Like-named read-outs stand apart in the source and are kept apart here.
Tests used:
[1] = tested on: Key Broadleaf Weed and Crop Species; test: Post-emergent Test II herbicidal activity (Table 5); format: in vivo; conditions: post-emergence, 336 h, post-emergent, 14 days after application; for pest or weed control at 70 g/ha: 70 g ai/ha; for pest or weed control at 140 g/ha: 140 g ai/ha
Summary of the method: (§1)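 Post-emergence foliar spray, 187 L/ha, track sprayer at 43 cm above canopy. Carrier: acetone/water/IPA/DMSO/Atplus 411F/Triton X-155. Plants at 1st–2nd true leaf; subirrigated afterwards; % injury scored visually at 14 d.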

[2] = tested on: Key Grass and Sedge Weeds as well as Grass Crops; test: Post-emergent Test II herbicidal activity (Table 6); format: in vivo; conditions: post-emergence, 336 h; for pest or weed control at 70 g/ha: application rate 70 g ai/ha; for pest or weed control at 140 g/ha: application rate 140 g ai/ha
Summary of the method: as §1

[3] = ABUTH: velvetleaf (Abutilon theophrasti), read-out: Visual Growth Reduction (%) 14 Days After Application ABUTH
[4] = AMARE: redroot pigweed (Amaranthus retroflexus), read-out: Visual Growth Reduction (%) 14 Days After Application AMARE
[5] = BRSNN: oilseed-rape, canola (Brassica napus), read-out: Visual Growth Reduction (%) 14 Days After Application BRSNN
[6] = CHEAL: lambsquarters (Chenopodium album), read-out: Visual Growth Reduction (%) 14 Days After Application CHEAL
[7] = EPHHL: wild poinsettia (Euphorbia heterophylla), read-out: Visual Growth Reduction (%) 14 Days After Application EPHHL
[8] = HELAN: sunflower (Helianthus annuus), read-out: Visual Growth Reduction (%) 14 Days After Application HELAN
[9] = VIOTR: wild pansy (Viola tricolor), read-out: Visual Growth Reduction (%) 14 Days After Application VIOTR
[10] = CYPES: yellow nutsedge (Cyperus esculentus), read-out: Visual Growth Reduction (%) 14 Days After Application, CYPES
[11] = DIGSA: crabgrass (Digitaria sanguinalis), read-out: Visual Growth Reduction (%) 14 Days After Application, DIGSA
[12] = ECHCG: barnyardgrass (Echinochloa crus-galli), read-out: Visual Growth Reduction (%) 14 Days After Application, ECHCG
[13] = ORYSA: rice (Oryza sativa), read-out: Visual Growth Reduction (%) 14 Days After Application, ORYSA
[14] = SETFA: giant foxtail (Setaria faberi), read-out: Visual Growth Reduction (%) 14 Days After Application, SETFA
[15] = SORVU: grain sorghum (Sorghum vulgare), read-out: Visual Growth Reduction (%) 14 Days After Application, SORVU
[16] = TRZSS (wheat, Triticum aestivum), read-out: Visual Growth Reduction (%) 14 Days After Application, TRZSS
[17] = ZEAMX: maize, corn (Zea mays), read-out: Visual Growth Reduction (%) 14 Days After Application, ZEAMX

For C=Cc1c(N)nc(-c2ccc(C#N)cc2F)nc1C(=O)O [Compound 5, 6-Amino-2-(4-cyano-2-fluorophenyl)-5-vinylpyrimidine-4-carboxylic acid], which pest or weed control at 70 g/ha [1, 3] is on record?
The pest or weed control at 70 g/ha was 0 to 29%.

And the pest or weed control at 140 g/ha [1, 3]?
Its pest or weed control at 140 g/ha is 0 to 29%.

What about the pest or weed control at 70 g/ha [1, 4] of the same compound?
Its pest or weed control at 70 g/ha is 0 to 29%.

What about the pest or weed control at 140 g/ha [1, 4] of the same compound?
The pest or weed control at 140 g/ha was 0 to 29%.

And the pest or weed control at 70 g/ha [1, 5]?
Its pest or weed control at 70 g/ha is 0 to 29%.

And the pest or weed control at 140 g/ha [1, 5]?
Its pest or weed control at 140 g/ha is 0 to 29%.

What about the pest or weed control at 70 g/ha [1, 6] of the same compound?
Its pest or weed control at 70 g/ha is 0 to 29%.

And the pest or weed control at 140 g/ha [1, 6]?
Its pest or weed control at 140 g/ha is 0 to 29%.

And the pest or weed control at 70 g/ha [1, 7]?
Its pest or weed control at 70 g/ha is 0 to 29%.

What about the pest or weed control at 140 g/ha [1, 7] of the same compound?
The pest or weed control at 140 g/ha was 0 to 29%.

What about the pest or weed control at 70 g/ha [1, 8] of the same compound?
Its pest or weed control at 70 g/ha is 85 to 94%.

And the pest or weed control at 140 g/ha [1, 8]?
The pest or weed control at 140 g/ha was 85 to 94%.

What about the pest or weed control at 70 g/ha [1, 9] of the same compound?
The pest or weed control at 70 g/ha was 0 to 29%.

What about the pest or weed control at 140 g/ha [1, 9] of the same compound?
The pest or weed control at 140 g/ha was 0 to 29%.

And the melting point?
The melting point was 164 to 168 °C.

What about the pest or weed control at 70 g/ha [2, 10] of the same compound?
The pest or weed control at 70 g/ha was 0 to 29%.

And the pest or weed control at 140 g/ha [2, 10]?
The pest or weed control at 140 g/ha was 0 to 29%.

What about the pest or weed control at 70 g/ha [2, 11] of the same compound?
Its pest or weed control at 70 g/ha is 0 to 29%.

And the pest or weed control at 140 g/ha [2, 11]?
The pest or weed control at 140 g/ha was 0 to 29%.

What about the pest or weed control at 70 g/ha [2, 12] of the same compound?
The pest or weed control at 70 g/ha was 0 to 29%.

What about the pest or weed control at 140 g/ha [2, 12] of the same compound?
Its pest or weed control at 140 g/ha is 0 to 29%.

And the pest or weed control at 70 g/ha [2, 13]?
Its pest or weed control at 70 g/ha is 0 to 29%.

And the pest or weed control at 140 g/ha [2, 13]?
Its pest or weed control at 140 g/ha is 0 to 29%.

And the pest or weed control at 70 g/ha [2, 14]?
Its pest or weed control at 70 g/ha is 0 to 29%.

What about the pest or weed control at 140 g/ha [2, 14] of the same compound?
Its pest or weed control at 140 g/ha is 0 to 29%.

What about the pest or weed control at 70 g/ha [2, 15] of the same compound?
Its pest or weed control at 70 g/ha is 0 to 29%.

What about the pest or weed control at 140 g/ha [2, 15] of the same compound?
Its pest or weed control at 140 g/ha is 0 to 29%.

And the pest or weed control at 70 g/ha [2, 16]?
Its pest or weed control at 70 g/ha is 0 to 29%.

What about the pest or weed control at 140 g/ha [2, 16] of the same compound?
Its pest or weed control at 140 g/ha is 0 to 29%.

What about the pest or weed control at 70 g/ha [2, 17] of the same compound?
Its pest or weed control at 70 g/ha is 0 to 29%.

And the pest or weed control at 140 g/ha [2, 17]?
Its pest or weed control at 140 g/ha is 0 to 29%.

Which results are given for COC(=O)c1nc(-c2cc(F)c(C#N)cc2F)c(F)c(N)c1Cl [Compound 198]?
pest or weed control at 70 g/ha [1, 3]: 60 to 74%; pest or weed control at 140 g/ha [1, 3]: 75 to 84%; pest or weed control at 70 g/ha [1, 4]: 60 to 74%; pest or weed control at 140 g/ha [1, 4]: 95 to 100%; pest or weed control at 70 g/ha [1, 5]: 75 to 84%; pest or weed control at 140 g/ha [1, 5]: 75 to 84%; pest or weed control at 70 g/ha [1, 6]: 85 to 94%; pest or weed control at 140 g/ha [1, 6]: 95 to 100%; pest or weed control at 70 g/ha [1, 7]: 45 to 59%; pest or weed control at 140 g/ha [1, 7]: 60 to 74%; pest or weed control at 70 g/ha [1, 8]: 95 to 100%; pest or weed control at 140 g/ha [1, 8]: 95 to 100%; pest or weed control at 70 g/ha [1, 9]: 30 to 44%; pest or weed control at 140 g/ha [1, 9]: 60 to 74%; pest or weed control at 70 g/ha [2, 10]: 60 to 74%; pest or weed control at 140 g/ha [2, 10]: 60 to 74%; pest or weed control at 70 g/ha [2, 11]: 0 to 29%; pest or weed control at 140 g/ha [2, 11]: 0 to 29%; pest or weed control at 70 g/ha [2, 12]: 0 to 29%; pest or weed control at 140 g/ha [2, 12]: 0 to 29%; pest or weed control at 70 g/ha [2, 13]: 0 to 29%; pest or weed control at 140 g/ha [2, 13]: 0 to 29%; pest or weed control at 70 g/ha [2, 14]: 0 to 29%; pest or weed control at 140 g/ha [2, 14]: 0 to 29%; pest or weed control at 70 g/ha [2, 15]: 0 to 29%; pest or weed control at 140 g/ha [2, 15]: 0 to 29%; pest or weed control at 70 g/ha [2, 16]: 30 to 44%; pest or weed control at 140 g/ha [2, 16]: 45 to 59%; pest or weed control at 70 g/ha [2, 17]: 0 to 29%; pest or weed control at 140 g/ha [2, 17]: 0 to 29%

— US9113629B2, “4-amino-6-(4-substituted-phenyl)-picolinates and 6-amino-2-(4-substituted-phenyl)-pyrimidine-4-carboxylates and their use as herbicides” (DOW AGROSCIENCES LLC, priority 2013, dated 2015)
